According to patent publication US20090082341A1 (SYNOSIA THERAPEUTICS, priority 2007, published 2009):
“Also recorded” adds a separate entry of the source.

Key:
[1] = system: phosphodiesterase (IV) enzyme; assay: Enzyme assay panel, phosphodiesterase (IV); type: biochemical; conditions: at 10 μM
Method: The IC50 values (concentration causing a half-maximal inhibition of control values), EC50 values (concentration causing a half-maximal stimulation of control values) and Hill coefficients (nH) were determined by non-linear regression analysis of the concentration-response curves using Hill equation curve fitting. See FIG. 33 for general procedures and FIG. 34-36 for experimental conditions for enzyme assays.
It was tested at several concentrations (for IC50 or EC50 value determination), and the data were compared with historical values determined at Cerep.

male Wistar rats = assay: APEC-induced hypolocomotion test; type: in vivo, rat
Method: APEC (2-[(2-aminoethylamino)carbonylethyl-phenyl-ethylamino]-5′-ethylcarboxamido-adenosine), an A2A receptor agonist, reduces spontaneous motor activity in a dose-dependent manner. APEC-induced hypolocomotion is attenuated by selective A2A receptor antagonists but not by selective A1 receptor antagonists.
Control animals received vehicle only or vehicle and APEC. The animals were placed in plexiglass test cages with arrays of photocells linked to a computer, and motor activity was recorded for 15 min. Data are mean±SEM based on 8 animals per group.
APEC (2-[(2-aminoethylamino)carbonylethyl-phenyl-ethylamino]-5′-ethylcarboxamidoadenosine) is an adenosine A2A receptor agonist which reduces spontaneous motor activity in a dose-dependent manner. APEC-induced hypolocomotion is attenuated by selective A2A receptor antagonists but not by selective A1 receptor antagonists (Marston H M et al. Pharmacological characterization of a simple behavioral response mediated selectively by central adenosine A1 receptors, using in vivo and in vitro techniques. J Pharm Exp Ther. 1998; 285:1023-1030.)
Male adult Wistar rats (HanBrl: Wist (SPF) RCC) weighing approximately 140-200 g were used. The animals were housed in groups of four in Macrolon Type 3 cages (810 cm^2) with sawdust bedding. Tap water and standard laboratory chow (Ratte Alleinfutter, extrudat No 3436; Provimikliba Kaiseraugst, Switzerland) were continuously available except during testing. The animal quarters were maintained on a 12:12 hr light-dark cycle with light onset at 6 a.m. Room temperature (21-23° C.) and humidity (55-65%) were kept constant. At the conclusion of testing, rats were euthanized by means of CO2 inhalation. […]
Locomotor activity was monitored with a Digiscan Animal Activity Monitoring system (Model RXYZCM Omnitech Electronics, Columbus, Ohio). […] Ten minutes after APEC administration, animals were then placed in the test cages where horizontal activity was recorded for 15 min. […]
Data was analyzed by Kruskal-Wallis ANOVA followed by Mann-Whitney U-test. […]

male Sprague-Dawley rats = assay: Differential-reinforcement-of-low-rate-30-seconds (DRL-30) test; type: in vivo, rat; conditions: 3, 10 and 30 mg/kg po, 2 h before test
From the text: The differential-reinforcement-of low-rate (DRL) test is used not only to assess the potential antidepressant properties of drugs but also their anxiolytic potential. Animals are trained to respond to a certain stimulus by pressing a lever. Typical antidepressants, such as TCAs, increase the time between responses, thereby decreasing the response rate. They also increase the number of reinforced responses i.e. repeated pressing of the lever at least 30 seconds after the initial pressing of the lever. Opposite effects are observed with atypical antidepressants such as nomifensine and with benzodiazepine-like anxiolytics.
The method follows that described by Richards J B, Seiden L S. A quantitative interresponse-time analysis of DRL performance differentiates similar effects of the antidepressant desipramine and the novel anxiolytic gepirone. J Exp Anal Behav. 1991; 56:173-192. Stephens D N, Voet B. Differential effects of anxiolytic and non-anxiolytic benzodiazepine receptor ligands on performance of a differential reinforcement of low rate (DRL) schedule. Behav Pharmacol. 1994; 5:4-14. Typical antidepressants increase the inter-response times, therefore decreasing the rate of responding. They also increase the number of reinforcements. Opposite effects are observed with benzodiazepine-like anxiolytics or with atypical antidepressants.
Male adult Sprague-Dawley rats (Charles River, France) weighing approximately 350 g were used. The animals were housed one per cage in Macrolon Type 3 cages (810 cm^2) with sawdust bedding and wood shavings. Animals had free access to tap water and restricted access (15 g per day) to standard laboratory chow (Ratte Alleinfutter, extrudat No 3436; Provimikliba Kaiseraugst, Switzerland). The animal quarters were maintained on a 12:12 hr light-dark cycle with light onset at 6 a.m. Room temperature (22±2° C.) and humidity (55-65%) were kept constant. The experimental procedures used received prior approval from the City of Basel Cantonal Animal Protection Committee based on adherence to federal and local regulations on animal maintenance and testing. […]

[2] = po, 2 h before recording, APEC 0.01 mg/kg sc

COc1ccc(N2CCOCC2)c2sc(NC(=O)N3CCC(C)(O)CC3)nc12 [4-hydroxy-4-methyl-piperidine-1-carboxylic acid (4-methoxy-7-morpholin-4-yl-benzothiazol-2-yl)-amide]
inhibition of phosphodiesterase (IV) enzyme [1]: 88%
effect on APEC-induced deficits in locomotor activity (male Wistar rats; 0.3 to 10 mg/kg po, vs vehicle + APEC): significantly reduced
ID50, reversal of APEC-induced deficits in locomotor activity (male Wistar rats; [2]): 0.5 mg/kg
ID90, reversal of APEC-induced deficits in locomotor activity (male Wistar rats; [2]): 3.4 mg/kg
mean inter-response time (time between responses) (male Sprague-Dawley rats): decreased
number of reinforcements (reinforced responses) (male Sprague-Dawley rats): tended to decrease
total number of responses (male Sprague-Dawley rats): dose-dependent increase; also recorded: significantly and dose-dependently increased
